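Growth conditions: 96-well plates. Treatment: test compound, 48 hours, 5 concentrations. Analysis: linear interpolation between bracketing concentrations; unreached endpoints set to highest concentration. Abbreviation: GI50, concentration required for 50% inhibition of growth. TGI: concentration producing complete growth inhibition.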
Experiments:
Test in all cases: DTP human tumour cell line panel, 48 h
[1] = system: SR leukemia
[2] = system: SK-MEL-28 melanoma
[3] = system: OVCAR-4 ovarian
[4] = system: COLO 205 colon
[5] = system: UACC-257 melanoma
[6] = system: SK-MEL-5 melanoma
[7] = system: SNB-75 CNS
[8] = system: DU-145 prostate
[9] = system: UACC-62 melanoma
[10] = system: MDA-MB-435
[11] = system: T-47D breast
[12] = system: UO-31 renal
[13] = system: NCI-H522 lung
[14] = system: PC-3 prostate
[15] = system: HCT-116 colon
[16] = system: MDA-MB-231 breast
[17] = system: SF-539 CNS
[18] = system: SW-620 colon
[19] = system: TK-10 renal
[20] = system: MALME-3M melanoma
[21] = system: 786-0 renal
[22] = system: SN12C renal
[23] = system: SF-268 CNS
[24] = system: IGROV1 ovarian
[25] = system: OVCAR-3 ovarian
[26] = system: ACHN renal
[27] = system: HL-60(TB) leukemia
[28] = system: SK-OV-3 ovarian
[29] = system: A549 NSCLC
[30] = system: M14 melanoma
[31] = system: SF-295 CNS
[32] = system: KM12 colon
[33] = system: MCF7 breast
[34] = system: HS 578T breast
[35] = system: NCI-H460 lung
[36] = system: HOP-92 NSCLC
[37] = system: K-562 leukemia
[38] = system: U251 CNS
[39] = system: CCRF-CEM leukemia
[40] = system: RXF 393 renal
[41] = system: RPMI-8226 leukemia
[42] = system: MDA-MB-468 breast
[43] = system: HOP-62 NSCLC
[44] = system: HCC-2998 colon
[45] = system: OVCAR-8 ovarian
[46] = system: LOX IMVI melanoma
[47] = system: NCI/ADR-RES ovarian
[48] = system: HT29 colon
[49] = system: OVCAR-5 ovarian
[50] = system: NCI-H23 lung
[51] = system: SK-MEL-2 melanoma
[52] = system: CAKI-1 renal
[53] = system: A498 renal
[54] = system: NCI-H226 lung
[55] = system: BT-549 breast
[56] = system: MOLT-4 leukemia
[57] = system: SNB-19 CNS
[58] = system: EKVX NSCLC
[59] = system: HCT-15 colon

O=C(NCCCCC(c1ccc(F)cc1)c1ccc(F)cc1)NCCCc1cccnc1
GI50 [1]: 3.17 µM | TGI [1]: > 100 µM | GI50 [2]: 10.6 µM | TGI [2]: 23.5 µM | GI50 [3]: 4.71 µM | TGI [3]: 53.1 µM | GI50 [4]: 0.877 µM | TGI [4]: 16.2 µM | GI50 [5]: 9.06 µM | TGI [5]: 23.8 µM | GI50 [6]: 1.22 µM | TGI [6]: 9.46 µM | GI50 [7]: 8.64 µM | TGI [7]: 26.8 µM | GI50 [8]: 0.721 µM | TGI [8]: 17.2 µM | GI50 [9]: 7.11 µM | TGI [9]: 20.2 µM | GI50 [10]: 0.444 µM | TGI [10]: 15 µM | GI50 [11]: 0.749 µM | TGI [11]: 16.1 µM | GI50 [12]: 5.51 µM | TGI [12]: 20.1 µM | GI50 [13]: 0.546 µM | TGI [13]: 16.1 µM | GI50 [14]: 0.645 µM | TGI [14]: 19 µM | GI50 [15]: 0.0931 µM | TGI [15]: 13 µM | GI50 [16]: 4.94 µM | TGI [16]: 20.9 µM | GI50 [17]: 0.0974 µM | TGI [17]: 11.9 µM | GI50 [18]: 0.297 µM | TGI [18]: 15.7 µM | GI50 [19]: 13.7 µM | TGI [19]: 29.2 µM | GI50 [20]: 8.47 µM | TGI [20]: 21.7 µM | GI50 [21]: 13.3 µM | TGI [21]: 37.1 µM | GI50 [22]: 0.133 µM | TGI [22]: 15.2 µM | GI50 [23]: 12.3 µM | TGI [23]: 29.2 µM | GI50 [24]: 0.816 µM | TGI [24]: 19.2 µM | GI50 [25]: 4.58 µM | TGI [25]: 22.4 µM | GI50 [26]: 9.16 µM | TGI [26]: 22.8 µM | GI50 [27]: 1.64 µM | TGI [27]: > 39.4 µM | GI50 [28]: 10.9 µM | TGI [28]: 29 µM | GI50 [29]: 2.62 µM | TGI [29]: 40.5 µM | GI50 [30]: 0.607 µM | TGI [30]: 16.4 µM | GI50 [31]: 1.82 µM | TGI [31]: 15.4 µM | GI50 [32]: 0.81 µM | TGI [32]: 18.4 µM | GI50 [33]: 3.61 µM | TGI [33]: 20.3 µM | GI50 [34]: 5.04 µM | TGI [34]: 34.9 µM | GI50 [35]: 3.23 µM | TGI [35]: 19.4 µM | GI50 [36]: 10.4 µM | TGI [36]: 26.5 µM | GI50 [37]: 0.385 µM | TGI [37]: > 100 µM | GI50 [38]: 3.88 µM | TGI [38]: 22.1 µM | GI50 [39]: 0.33 µM | TGI [39]: 24.6 µM | GI50 [40]: 12.4 µM | TGI [40]: 27.3 µM | GI50 [41]: 0.627 µM | TGI [41]: 20.3 µM | GI50 [42]: 1.53 µM | TGI [42]: 10.6 µM | GI50 [43]: 14.6 µM | TGI [43]: 30.2 µM | GI50 [44]: 0.822 µM | TGI [44]: 17.3 µM | GI50 [45]: 0.127 µM | TGI [45]: 26.4 µM | GI50 [46]: 10.7 µM | TGI [46]: 23.4 µM | GI50 [47]: 0.584 µM | TGI [47]: 17.3 µM | GI50 [48]: 0.619 µM | TGI [48]: 17 µM | GI50 [49]: 0.628 µM | TGI [49]: 17.8 µM | GI50 [50]: 6.8 µM | TGI [50]: 23 µM | GI50 [51]: 4.24 µM | TGI [51]: 16.9 µM | GI50 [52]: 5.87 µM | TGI [52]: 25.3 µM | GI50 [53]: 18.3 µM | TGI [53]: 32.9 µM | GI50 [54]: 12.3 µM | TGI [54]: 29 µM | GI50 [55]: 3.21 µM | TGI [55]: 15.3 µM | GI50 [56]: 1.13 µM | TGI [56]: > 50.5 µM | GI50 [57]: 1.79 µM | TGI [57]: 18.5 µM | GI50 [58]: 5.01 µM | TGI [58]: 23.6 µM | GI50 [59]: 0.461 µM | TGI [59]: 14.9 µM
